Assays:
[1] = system: lungs; experiment: Light microscopy of lungs for morphological changes caused by breathing NO; format: in vivo; conditions: 80 ppm NO for 180 min, three lambs vs control lungs
Procedure: Lungs from three lambs which had breathed 80 ppm NO for 180 min were studied by light microscopy for evidence of morphological changes caused by breathing NO.

[2] = system: methacholine bronchoconstriction; experiment: NO and terbutaline aerosol during methacholine infusion; format: in vivo, Hartley strain guinea pigs; conditions: NO gas before or after inhaled terbutaline
Procedure: Male Hartley strain guinea pigs (300-440g body wt) were anesthetized with α-chloralose (50 mg/kg) and urethane (500 mg/kg) (Drazen et al., J. Appl. Physiol. 48:613-618, 1980). A tracheostomy was performed, and the animals were intubated with a tubing adaptor (ID 1.65 mm) and ventilated with a small animal ventilator (Harvard Apparatus, a division of Ealing Scientific, Natick, Mass.) at 8 ml/kg and 60 breaths/min. A jugular vein was cannulated for intravenous administration of drugs. The chest was opened by bilateral excision of a portion of the ribs anteriorly so that the lungs were exposed to atmospheric pressure (Shore and Drazen, J. Appl. Physiol. 67:2504-2511, 1989). A positive end expiratory pressure of 3-4 cmH2 O was provided.
Guinea pigs were then placed inside a plethysmograph (Amdur and Mead, Am. J. Physiol. 192:363-368, 1958), that was connected to a large reservoir containing copper mesh to maintain the plethysmograph isothermal. Plethysmograph pressure was measured with a differential pressure transducer (Celesco, Canoga Park, Calif.); the opposite side of this transducer was connected to a similar reservoir. Pressure at the airway opening was measured from a side tap in the tracheal canula. Transpulmonary pressure was measured with a differential pressure transducer (Celesco) as the difference between airway opening pressure and the pressure inside the plethysmograph. […]

[3] = system: ARDS; experiment: NO inhalation in nine additional ARDS patients; format: in vivo, human
Text: Subsequent subjects. Nine additional patients have been treated for ARDS by NO inhalation, for periods up to 28 days.

[4] = system: control lambs; experiment: Inhaled NO in control lambs with no drug infusion; format: in vivo, Suffolk lambs; conditions: 80 ppm NO, FiO2 0.6-0.7, two lambs
Text: Eight Suffolk lambs weighing 25-35 kg underwent a sterile thoracotomy in order to place a left atrial line, tracheostomy and femoral artery line under general endotracheal anesthesia with halothane/oxygen three days before study. After three days of recovery the lambs underwent sterile placement of a 7 French thermal dilution pulmonary artery monitoring catheter under local anesthesia.
Awake unanesthetized lambs were studied in order to avoid general anesthesia which can blunt hypoxic vasoconstriction. Lambs were placed in a Babraham cage and allowed to drink and eat ad lib. Two studies were performed 2 days apart on each of six lambs. After the study the lambs were sacrificed with an overdose of barbiturate and heir lungs were fixed, stained and examined by light microscopy for pathological changes.
A pulmonary vasodilator dose response curve plotting changes in PAP as a function of inhaled NO concentration during U46619 infusion was produced for eight lambs breathing a series of increasing NO/O2 mixtures of 5, 10, 20, 40, and 80 ppm NO for six minutes (FIG. 1). Each level of NO exposure was followed by six minutes of breathing the oxygen mixture without NO (FIG. 2). A second exposure to NO was examined for similar periods. Subsequently, a control period breathing the oxygen mixture was studied six minutes after ceasing U46619 infusion. At each three and six minute time period after administering or discontinuing NO during the study, we measured mean and phasic pulmonary artery pressure (PAP), left atrial pressure (LAP), systemic arterial pressure (SAP) and central venous pressure (CVP). All pressures were recorded on a Hewlett Packard multi-channel strip chart recorder with transducers zeroed to atmospheric pressure at the mid point of the thorax (e.g., see FIG. 3). Cardiac output (CO) was measured by thermal dilution as the average of two determinations injecting 5 ml of 0° C. Ringers lactate. Pulmonary vascular resistance (PVR) and systemic vascular resistance (SVR) were computed by standard formulae; PVR measured at each inhaled NO concentration is shown in FIG. 4. Appropriate statistical analyses were performed, and all data were expressed as mean ± standard error.
Two control lambs with no drug infusion breathed 80 ppm NO at an F1 O2 of 0.6-0.7. There was no change of mean PAP, SAP, CO or SVR in these lambs.

[5] = system: hypoxia-induced pulmonary vasoconstriction; experiment: 40 ppm NO in healthy volunteers breathing 12% O2 (hypoxic, vasoconstricted lung); format: in vivo, human
Procedure: The effects of breathing 40 ppm NO were studied in five awake, healthy human volunteer subjects inhaling various gas mixtures for 10 min periods, with measurements starting at 6 min.

Question: With `[N]=O` [NO, nitric oxide] as the molecule, how does the “morphological changes of lungs” value [1] read?
Answer: No significant differences

Question: And the “bronchodilating effects of NO plus terbutaline” value [2]?
Answer: additive

Question: And the methemoglobin levels ([3]; NO inhalation up to 28 days)?
Answer: No important increase of methemoglobin levels

Question: And the PAP ([3]; during NO breathing)?
Answer: reduced PAP

Question: What about the “QVA /QT” value ([3]; during NO breathing) of the same molecule?
Answer: marked reductions of QVA /QT

Question: And the survival ([3]; nine patients, up to 28 days)?
Answer: Seven survived

Question: What about the CO [4] of the same molecule?
Answer: no change

Question: What about the SAP [4] of the same molecule?
Answer: no change

Question: And the SVR [4]?
Answer: no change

Question: What about the “mean PAP” value [4] of the same molecule?
Answer: no change

Question: And the CO ([5]; 12% O2 + 40 ppm NO, n = 5)?
Answer: 8.37 ± 1.68 L/min

Question: What about the CVP ([5]; 12% O2 + 40 ppm NO, n = 5) of the same molecule?
Answer: 5.2 ± 2.6 mmHg

Question: And the MAP ([5]; 12% O2 + 40 ppm NO, n = 5)?
Answer: 86.0 ± 5.7 mmHg

Question: What about the PCWP ([5]; 12% O2 + 40 ppm NO, n = 5) of the same molecule?
Answer: 8.5 ± 2.2 mmHg

Question: And the PVR ([5]; 12% O2 + 40 ppm NO, n = 5)?
Answer: 0.62 mmHg · min/l

Question: And the PaCO2 ([5]; 12% O2 + 40 ppm NO, n = 5)?
Answer: 34 ± 5 mmHg

Question: And the PaO2 ([5]; 12% O2 + 40 ppm NO, n = 5)?
Answer: 45 ± 5 mmHg

Question: What about the SaO2 ([5]; 12% O2 + 40 ppm NO, n = 5) of the same molecule?
Answer: 83.9 ± 5.7%

Question: And the PAP ([5]; 12% O2 + 40 ppm NO, n = 5, p < 0.01 vs previous situation)?
Answer: 13.7 ± 1.7 mmHg

Question: What about the “reversal of hypoxia-induced pulmonary vasoconstriction” value ([5]; 40 ppm NO, 12% v/v oxygen) of the same molecule?
Answer: reversed completely

— patent publication US5873359A, “Methods and devices for treating pulmonary vasoconstriction and asthma” (The General Hospital Corporation, priority 1994, dated 1999)
